Measured values: publication PMC10989073, “Antineoplastic effect of compounds C14 and P8 on TNBC and radioresistant TNBC cells by stabilizing the K-Ras4B^G13D/PDE6δ complex” (Frontiers in Oncology, 2024)

Columns and labels:
Type in all cases: cell-based, human
[1] = system: MCF-10A cells; assay: Clonogenic assay; conditions: 10 to 12 days, C14 and P8 at IC50-48, cisplatin 100 µM, doxorubicin 0.5 µM
Experimental: (§1) The principal aim of a clonogenic assay is to evaluate the effect of chemotherapy agents or new drugs by the measurement of their ability to arrest tumor cell division and their ability to develop new colonies after their exposure to these new drugs ([56]). Therefore, the colony formation ability of the cell lines MCF-10A, MDA-MB-231, and MDA-MB-231RR was evaluated after their exposure to the C14 and P8 compounds. In brief, breast cancer cell lines were cultured in 6-well plates (Corning), seeding 300 cells per well, and incubated at 37°C in 5% CO2 for 24 h. Compounds C14 and P8 were added at the maximum evaluated concentration IC50-48. As controls, cells without treatment and cells treated in the presence of a vehicle (DMSO at 0.66%) were employed (Sigma-Aldrich). […] After 10 days of treatment, cells were fixed with 4% PFA and stained with 0.1% crystal violet in citric acid (Sigma-Aldrich) for 15 minutes. Subsequently, the dye present in the cells was extracted using isopropanol and read at 570 nm in a Synergy-HTX microplate reader (BioTek). Each test was performed in triplicate. Data were expressed as % colonies relative to the untreated control ([56]).

[2] = system: MDA-MB-231RR cells; assay: Clonogenic assay; conditions: 10 to 12 days, C14 and P8 at IC50-48, cisplatin 100 µM, doxorubicin 0.5 µM
Experimental: as §1

[3] = system: MDA-MB-231 cells; assay: Clonogenic assay; conditions: MDA-MB-231, 10 to 12 days; C14 and P8 at IC50-48, cisplatin 100 µM, doxorubicin 0.5 µM
Experimental: as §1

[4] = system: MCF-10A cells; assay: Apoptosis/necrosis assay (Annexin V–propidium iodide, flow cytometry); conditions: 24 h, cisplatin 100 µM, doxorubicin 0.5 µM
Experimental: Apoptosis and necrosis were determined using the Apoptosis/Necrosis Detection kit (Abcam, Cambridge, UK) according to the manufacturer’s instructions. In brief, approximately 500,000 cells were seeded in 6-well plates (Corning) for 24 h. […] Cells were harvested and collected by centrifugation. All the samples were analyzed in triplicate using flow cytometry equipment FACSCalibur instrument (BD Biosciences, San Jose, CA, USA) at […] and 575-nm emission. Data analysis was performed using the FlowJo software (Tree Star Inc., Ashland, OR, USA). All experiments were performed in triplicate.

[5] = system: MDA-MB-231 cells; assay: Cell cycle analysis (propidium iodide, flow cytometry); conditions: MDA-MB-231, 3 h at IC50-48H; control 10.0%
Experimental: After 3-h incubation, cells were harvested, washed twice in ice-cold PBS, and fixed overnight in 70% ethanol at 4°C. Then, cells were washed in PBS, collected by centrifugation, and stained with staining buffer (PBS with 50 µg/ml propidium iodide and 100 µg/ml RNase A).

[6] = system: cyclin D1 and GSK3β in MDA-MB-231RR cells; assay: Western blotting of cyclin D1 and GSK3β; conditions: 3 h, C14 and P8 at IC50-24 (Figure 7 legend), cisplatin 100 µM, doxorubicin 0.5 µM
Experimental: (§2) To determine the effect of the C14 and P8 compounds over the protein effectors of K-Ras4B, AKT, and ERK, immunoblotting assays were conducted with specific antibodies. In brief, MCF-10A, MDA-MB-231, and MDA-MB-231RR cells were plated in 100-mm culture dishes until 80% of confluents. Cell adhesion was allowed for 24 h. […] After pre-treatment, cells were stimulated with 100 ng/ml EGF for 10 minutes to promote AKT and ERK activation. Later, the whole-cell extracts were obtained by the lysis of the cells (Cytoskeleton) in the presence of proteases and phosphatase inhibitors. Subsequently, the protein extracts were incubated at 4°C for 40 minutes to be clarified by centrifugation for 10 minutes at 14,000 rpm, at 4°C. The protein concentration of each extract was determined by using the Precision Red Advanced Protein Assay Reagent (Cytoskeleton) Then, approximately 25 μg of protein extract was electrophoresed in 10% sodium dodecyl sulfate–polyacrylamide gel electrophoresis (SDS-PAGE) and transferred to polyvinylidene fluoride (PVDF) membranes (Millipore, Billerica, MA, USA). Blots were probed using the following primary antibodies: Total ERK (Cell Signaling, Danvers, MA, USA), pERK (Cell Signaling), Total AKT (Cell Signaling), pAKT (Cell Signaling), GSK3β (Cell Signaling), and cyclin D1 (Abcam) at a 1:1,000 dilution. As a control, an anti-GAPDH antibody (GeneTex, Irvine, CA, USA) was employed at a 1:100,000 dilution and γ-Tubulin (Invitrogen) 1:5,000. Densitometric analysis of blots was performed using the software ImageJ version 1.45 (National Institutes of Health, Bethesda, […], USA).

[7] = system: cyclin D1 and GSK3β in MDA-MB-231 cells; assay: Western blotting of cyclin D1 and GSK3β; conditions: MDA-MB-231, 3 h; C14 and P8 at IC50-24 (Figure 7 legend), cisplatin 100 µM, doxorubicin 0.5 µM
Experimental: as §2

[8] = system: MDA-MB-231RR cells; assay: Apoptosis/necrosis assay (Annexin V–propidium iodide, flow cytometry); conditions: 24 h, C14 and P8 at IC50-24, cisplatin 100 µM, doxorubicin 0.5 µM
Experimental: (§3) To determine if the C14 and P8 compounds were able to evoke cell death by apoptosis or necrosis, cell lines MCF-10A, MDA-MB-231, and MDA-MB-231RR were treated at IC50-24 for 24 h. Apoptosis and necrosis were determined using the Apoptosis/Necrosis Detection kit (Abcam, Cambridge, UK) according to the manufacturer’s instructions. In brief, approximately 500,000 cells were seeded in 6-well plates (Corning) for 24 h. Then, each cell line was treated with the respective IC50-24 concentrations of C14 and P8. […] Cells were harvested and collected by centrifugation. All the samples were analyzed in triplicate using flow cytometry equipment FACSCalibur instrument (BD Biosciences, San Jose, CA, USA) at […] and 575-nm emission. Data analysis was performed using the FlowJo software (Tree Star Inc., Ashland, OR, USA). All experiments were performed in triplicate.

[9] = system: MDA-MB-231 cells; assay: as above; conditions: MDA-MB-231, 24 h; C14 and P8 at IC50-24, cisplatin 100 µM, doxorubicin 0.5 µM
Experimental: as §3

[10] = system: Ras-GTP in MCF-10A cells; assay: Ras activation pull-down assay (Raf-RBD); conditions: 3 h pre-treatment (C14, P8 at IC50-48H), EGF 100 ng/ml 10 min
Experimental: Subsequently, the cells were stimulated with epidermal growth factor (EGF) (100 ng/ml) for 10 minutes. Lysates (1 mg/ml) were exposed to Ras GTP-binding protein (Raf-RBD), following the manufacturer’s instructions. Experiments for each cell type and condition were repeated three times.

With `COc1cccc2c1C(=O)c1c(O)c3c(c(O)c1C2=O)C[C@@](O)(C(=O)CO)C[C@@H]3O[C@H]1C[C@H](N)[C@H](O)[C@H](C)O1` [Doxorubicin, doxorubicin, reference compound] the “reduction of colony growth” value [1] was “up to 90%”, the “reduction in colony formation” value [2] was 90% and the “reduction in colony formation” value [3] was “significant reduction”. For the same compound, the apoptosis cells [4] was “up to 11.54%”, the “percentage of cells in G2/M” value [5] was “increased” and the “reduction in cyclin D1” value [6] was 20%. The “reduction in cyclin D1 expression” value [7] was “no significant effect”, the apoptosis cells [8] was 0.61% and the necrosis [8] was 1.28%. The apoptosis cells [9] was 4.65%, the necrosis [9] was 9.20% and the “reduction in Ras-GTP” value [10] was 40%.
